Results published in patent US20250313575A1, “MACROCYCLES AS LRRK2 INHIBITORS, PHARMACEUTICAL COMPOSITIONS, AND USES THEREOF” (Merck Sharp & Dohme LLC, priority 2022, published 2025).
Structures can show the parent of a compound that is named as a salt.

target: GST-tagged truncated human mutant G2019S LRRK2 (Homo sapiens (Human), UniProt Q5S007, G2019S); experiment: LRRK2 G2019S Km ATP LanthaScreen assay; assay type: biochemical; details: G2019S LRRK2, 134 μM ATP (Km ATP), LRRKtide substrate
Outline: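 Ten-point compound series (highest 9.99 μM in DMSO) preincubated 15 min with 1.25 nM GST-tagged truncated human LRRK2 G2019S, then 90 min reaction at ambient temperature with 134 μM ATP (Km) and fluorescein-labelled LRRKtide, pH 8.5. Phosphorylation read as 520/495 nm emission ratio via Tb-labelled antibody; IC50 from 4P logistic regression.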

Chain of GST-tagged truncated human mutant G2019S LRRK2 (Q5S007 970-2527 G2019S): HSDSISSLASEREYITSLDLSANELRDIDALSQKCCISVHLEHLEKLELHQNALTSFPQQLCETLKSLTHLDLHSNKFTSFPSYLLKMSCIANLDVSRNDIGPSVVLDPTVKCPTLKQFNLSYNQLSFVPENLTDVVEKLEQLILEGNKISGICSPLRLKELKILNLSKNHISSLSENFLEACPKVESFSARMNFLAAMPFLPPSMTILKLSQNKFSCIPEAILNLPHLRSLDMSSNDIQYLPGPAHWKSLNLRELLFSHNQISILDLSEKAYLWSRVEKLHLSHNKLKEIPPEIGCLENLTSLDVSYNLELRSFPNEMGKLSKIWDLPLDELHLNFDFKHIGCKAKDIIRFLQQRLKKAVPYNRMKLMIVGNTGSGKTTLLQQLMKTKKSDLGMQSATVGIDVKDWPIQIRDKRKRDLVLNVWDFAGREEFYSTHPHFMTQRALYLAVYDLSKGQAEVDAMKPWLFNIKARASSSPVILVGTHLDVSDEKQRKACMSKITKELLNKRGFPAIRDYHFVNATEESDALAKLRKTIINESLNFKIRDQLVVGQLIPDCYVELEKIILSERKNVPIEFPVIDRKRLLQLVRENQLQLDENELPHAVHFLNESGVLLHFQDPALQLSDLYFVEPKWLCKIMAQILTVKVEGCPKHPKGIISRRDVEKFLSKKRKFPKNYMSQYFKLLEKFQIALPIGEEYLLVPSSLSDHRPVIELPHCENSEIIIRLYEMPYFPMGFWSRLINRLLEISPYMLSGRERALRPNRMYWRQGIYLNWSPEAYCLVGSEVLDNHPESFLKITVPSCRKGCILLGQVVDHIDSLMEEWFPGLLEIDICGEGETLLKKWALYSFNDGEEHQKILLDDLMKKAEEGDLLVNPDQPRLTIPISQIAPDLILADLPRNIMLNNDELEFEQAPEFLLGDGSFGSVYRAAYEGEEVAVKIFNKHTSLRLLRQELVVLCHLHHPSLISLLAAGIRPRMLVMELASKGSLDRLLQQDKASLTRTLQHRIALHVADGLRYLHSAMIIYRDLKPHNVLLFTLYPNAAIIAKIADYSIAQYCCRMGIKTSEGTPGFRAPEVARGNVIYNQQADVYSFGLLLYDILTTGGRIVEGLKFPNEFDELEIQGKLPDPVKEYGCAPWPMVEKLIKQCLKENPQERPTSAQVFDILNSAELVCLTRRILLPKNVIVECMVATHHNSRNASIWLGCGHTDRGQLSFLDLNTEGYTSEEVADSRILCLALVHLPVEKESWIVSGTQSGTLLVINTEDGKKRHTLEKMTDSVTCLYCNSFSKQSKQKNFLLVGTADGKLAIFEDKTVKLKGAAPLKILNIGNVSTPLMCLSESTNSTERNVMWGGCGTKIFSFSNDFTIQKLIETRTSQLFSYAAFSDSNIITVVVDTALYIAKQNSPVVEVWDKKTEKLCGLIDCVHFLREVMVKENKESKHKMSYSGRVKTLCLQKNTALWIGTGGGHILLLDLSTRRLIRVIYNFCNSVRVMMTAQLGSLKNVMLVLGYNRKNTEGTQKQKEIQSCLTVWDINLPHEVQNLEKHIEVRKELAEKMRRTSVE

Row | SMILES | LRRK2 pIC50
1 | FC(F)(F)c1cnc2nc1NC1CCC1COc1c(C3COC3)nn(C3CCC3)c1N2 [Ex-2.71, (10aR,12aR)- or (10aS,12aS)-3-cyclobutyl-1-(oxetan-3-yl)-8-(trifluoromethyl)-3,4,10,10a,11,12,12a,13-octahydro-5,9-(azeno)cyclobuta[k]pyrazolo[4,3-b][1]oxa[4,6,10]triazacyclotridecine] | 8.24
2 | Cc1nn(C2CCC2)c2c1OC[C@@H]1CC[C@@H]1Nc1nc(ncc1Cl)N2 [Ex-2.56, (10aS,12aR)-8-chloro-3-cyclobutyl-1-methyl-3,4,10,10a,11,12,12a,13-octahydro-5,9-(azeno)cyclobuta[k]pyrazolo[4,3-b][1]oxa[4,6,10]triazacyclotridecine] | >10.09
3 | Cc1nn(C)c2c1OCC[C@H](C)Nc1nc(ncc1C(F)(F)F)N2 (mixture of isomers) [Ex-2.1, (R)- and (S)-1,3,7-trimethyl-10-(trifluoromethyl)-1,5,6,7,8,14-hexahydro-9,13-(azeno)pyrazolo[4,3-b][1]oxa[4,6,10]triazacyclotridecine] | 6.64
4 | O[C@@H]1COCC1n1nc(C2CC2)c2c1OC[C@H]1CC[C@@H]1Nc1nc(ncc1C(F)(F)F)N2 (single isomer, unassigned) [Ex-6.2, (3R,4S)-4-((10aR,12aR)- or (3R,4S)-4-((10aS,12aS)- or (3S,4R)-4-((10aR,12aR)- or (3S,4R)-4-((10aR,12aR)-3-cyclopropyl-8-(trifluoromethyl)-10,10a,11,12,12a,13-hexahydro-5,9-(azeno)cyclobuta[k]pyrazolo[3,4-b][1]oxa[4,6,10]triazacyclotridecin-1 (4H)-yl)tetrahydrofuran-3-ol] | >10.09
5 | Cc1nn(C2CC2)c2c1OC[C@@H]1CC[C@H]1Nc1nc(ncc1C(F)(F)F)N2 [Ex-2.68, (10aR,12aR)-3-cyclopropyl-1-methyl-8-(trifluoromethyl)-3,4,10,10a,11,12,12a,13-octahydro-5,9-(azeno)cyclobuta[k]pyrazolo[4,3-b][1]oxa[4,6,10]triazacyclotridecine] | >10.09
6 | Cc1nn(C)c2c1CCC[C@@H](C)Nc1nc(ncc1C(F)(F)F)N2 (single isomer, unassigned) [Ex-11.1, (R)- or (S)-1,3,7-Trimethyl-10-(trifluoromethyl)-4,5,6,7,8,14-hexahydro-1H-9,13-(azeno)pyrazolo[4,3-l][1,3,7]triazacyclotridecine] | 8.49
7 | Cc1nn(C2CCC2)c2c1OC[C@H]1CC[C@H]1Nc1nc(ncc1C(F)(F)F)N2 (single isomer, unassigned) [Ex-2.22, (10aR,12aS)- or (10aS,12aR)-3-cyclobutyl-1-methyl-8-(trifluoromethyl)-3,4,10,10a,11,12,12a,13-octahydro-5,9-(azeno)cyclobuta[k]pyrazolo[4,3-b][1]oxa[4,6,10]triazacyclotridecine] | 5.76
8 | Cn1nc(C2CC2)c2c1OCC1CCC1Nc1nc(ncc1C(F)(F)F)N2 [Ex-1.9, (10aR,12aS)- or (10aS,12aR)-3-cyclopropyl-1-methyl-8-(trifluoromethyl)-1,4,10,10a,11,12,12a,13-octahydro-5,9-(azeno)cyclobuta[k]pyrazolo-[3,4-b][1]oxa[4,6,10]triazacyclo-tridecine] | >10.09
9 | Cc1nn(C)c2c1OC[C@@H]1CN(C[C@H]1C)c1nc(ncc1C(F)(F)F)N2 [Ex-19.1] | >10.09
10 | Cc1ccc2c(n1)OC[C@@H]1COC[C@H]1Nc1nc(ncc1C(F)(F)F)N2 [Ex-15.7, (11aS,14aS)-2-methyl-9-(trifluoromethyl)-11a,12,14a,15-tetrahydro-5H,11H,14H6,10-(azeno)furo[3,4-k]pyrido[2,3-b][1]oxa[4,6,10]triazacyclotridecine] | 10.01
11 | O[C@@H]1COCC1n1nc(C2CC2)c2c1OC[C@H]1CC[C@@H]1Nc1nc(ncc1C(F)(F)F)N2 (single isomer, unassigned) [Ex-6.4, (3R,4S)-4-((10aR,12aR)- or (3R,4S)-4-((10aS,12aS)- or (3S,4R)-4-((10aR,12aR)- or (3S,4R)-4-((10aR,12aR)-3-cyclopropyl-8-(trifluoromethyl)-10,10a,11,12,12a,13-hexahydro-5,9-(azeno)cyclobuta[k]pyrazolo[3,4-b][1]oxa[4,6,10]triazacyclotridecin-1 (4H)-yl)tetrahydrofuran-3-ol] | >10.09
12 | Cc1nn(C)c2c1OC[C@H]1COC[C@H]1Nc1nc(ncc1C(F)(F)F)N2 [Ex-2.24, (10aS,13aR)- or (10aR,13aS)-1,3-dimethyl-8-(trifluoromethyl)-3,4,10a,11,13a,14-hexahydro-10H,13H-5,9-(azeno)furo[3,4-k]pyrazolo[4,3-b][1]oxa[4,6,10]triazacyclotridecine] | 6.05
13 | Cc1nn(C)c2c1OCC1(CC1)CNc1nc(ncc1C(F)(F)F)N2 [Ex-2.5, 1′,3′-dimethyl-10′-(trifluoromethyl)-1′,7′,8′,14′-tetrahydro-5′H-spiro[cyclopropane-1,6′-[9,13](azeno)pyrazolo[4,3-b][1]oxa[4,6,10]triazacyclotridecine]] | >10.09
14 | Cn1nc(C(F)(F)F)c2c1OCC1COC[C@H]1Nc1nc(ncc1C(F)(F)F)N2 (stereo partly drawn) [Ex-1.2, (10aS,13aS)-1-Methyl-3,8-bis(trifluoromethyl)-1,4,10a,11,13a,14-hexahydro-10H,13H-5,9-(azeno)furo[3,4-k]pyrazolo[3,4-b][1]oxa[4,6,10]triazacyclotridecine] | >10.09
15 | Cn1nc(C(F)(F)F)c2c1Nc1ncc(Cl)c(n1)N[C@@H]1COC[C@H]1CO2 [Ex-2.75, (10aS,13aS)-8-chloro-3-methyl-1-(trifluoromethyl)-3,4,10a,11,13a,14-hexahydro-10H,13H-5,9-(azeno)furo[3,4-k]pyrazolo[4,3-b][1]oxa[4,6,10]triazacyclotridecine] | 9.50
16 | Cc1nn(C(C)C)c2c1OC[C@@H]1COC[C@H]1Nc1nc(ncc1C(F)(F)F)N2 [Ex-2.42, (10aS,13aS)-3-isopropyl-1-methyl-8-(trifluoromethyl)-3,4,10a,11,13a,14-hexahydro-10H,13H-5,9-(azeno)furo[3,4-k]pyrazolo[4,3-b][1]oxa[4,6,10]triazacyclotridecine] | 9.93
17 | CC1CCOc2c(C3CC3)nn(C)c2Nc2ncc(C(F)(F)F)c(n2)N1 (single isomer, unassigned) [Ex-2.19, (R)- or (S)-3-cyclopropyl-1,7-dimethyl-10-(trifluoromethyl)-1,5,6,7,8,14-hexahydro-9,13-(azeno)pyrazolo[4,3-b][1]oxa[4,6,10]triazacyclotridecine] | 8.78
18 | Cc1nn(C)c2c1OCC1CC[C@H]1Nc1nc(ncc1C(F)(F)F)N2 (stereo partly drawn) [Ex-2.11, (10aR,12aS)- or (10aS,12aR)-1,3-dimethyl-8-(trifluoromethyl)-3,4,10,10a,11,12,12a,13-octahydro-5,9-(azeno)cyclobuta[k]pyrazolo[4,3-b][1]oxa[4,6,10]triazacyclotridecine] | >10.09
19 | N#CC1CC1c1nn(C2CCC2)c2c1OC[C@@H]1COC[C@H]1Nc1nc(ncc1C(F)(F)F)N2 (single isomer, unassigned) [Ex-2.51, (1R,2R)- or (1S,2S)-2-((10aS,13aS)-3-cyclobutyl-8-(trifluoromethyl)-3,4,10a,11,13a, 14-hexahydro-10H,13H-5,9-(azeno)furo[3,4-k]pyrazolo[4,3-b][1]oxa[4,6,10]triazacyclotridecin-1-yl)cyclopropane-1-carbonitrile] | 9.05
20 | Cc1nn(C2CCC2)c2c1OC[C@@H]1CC[C@H]1Nc1nc(ncc1C(F)(F)F)N2 [Ex-2.3, (10aR,12aR)- or (10aS,12aS)-3-Cyclobutyl-1-methyl-8-(trifluoromethyl)-3,4,10,10a,11,12,12a,13-octahydro-5,9-(azeno)cyclobuta[k]pyrazolo[4,3-b][1]oxa[4,6,10]triazacyclotridecine] | 9.12
21 | Cc1nn(C(C)C)c2c1OC[C@@H]1COC[C@H]1Nc1cc(ncc1C(F)(F)F)N2 [Ex-13.5, (10aS,13aS)-3-isopropyl-1-methyl-8-(trifluoromethyl)-3,4,10a,11,13a,14-hexahydro-10H,13H-5,9-(metheno)furo[3,4-k]pyrazolo[4,3-b][1]oxa[4,6,10]triazacyclotridecine] | >10.09
22 | Cc1nn(C2CCC2)c2c1OC[C@@H]1COC[C@H]1Nc1cc(ncc1C(F)(F)F)N2 [Ex-13.1, (10aR,13aR)-3-Cyclobutyl-1-methyl-8-(trifluoromethyl)-3,4,10a,11,13a,14-hexahydro-10H,13H-5,9-(metheno)furo[3,4-k]pyrazolo[4,3-b][1]oxa[4,6,10]triazacyclotridecine, TFA] | >10.09
23 | Cn1nc(C(F)(F)F)c2c1OC[C@@H]1CC[C@H]1Nc1nc(ncc1Cl)N2 [Ex-1.19, (10aR,12aR)-8-chloro-1-methyl-3-(trifluoromethyl)-1,4,10,10a,11,12,12a,13-octahydro-5,9-(azeno)cyclobuta[k]pyrazolo[3,4-b][1]oxa[4,6,10]triazacyclotridecine] | 9.87

same assay, conditions: G2019S LRRK2, 134 μM ATP (Km ATP), LRRKtide substrate; read-out: LRRK2 pIC50 (converted)

Row | SMILES | IC50 [nM]
24 | Cc1nn2c(c1C)Nc1ncc(C(F)(F)F)c(n1)N[C@@H](C)CCC2 (single isomer, unassigned) [Ex-16.2, 8,14,15-Trimethyl-5-(trifluoromethyl)-8,9,10,11-tetrahydro-1H,7H-2,6-(azeno)pyrazolo[1,5-a][1,3,5,9]tetraazacyclotridecine] | 0.631
25 | Cc1nn(C)c2c1OC[C@H]1COC[C@H]1Nc1nc(ncc1C(F)(F)F)N2 (single isomer, unassigned) [Ex-2.25, (10aS,13aR)- or (10aR,13aS)-1,3-dimethyl-8-(trifluoromethyl)-3,4,10a,11,13a,14-hexahydro-10H,13H-5,9-(azeno)furo[3,4-k]pyrazolo[4,3-b][1]oxa[4,6,10]triazacyclotridecine] | 28.2
